Results taken from patent publication US20200325505A1, “FILAMENTOUS FUNGI CAPABLE OF PRODUCING VERY LONG CHAIN FATTY ACIDS” (UT-Battelle, LLC, priority 2019, published 2020).
Residues, ends and D or L forms follow the SMILES beside them.

Columns and labels:
[1] = test system: Mortierella elongata AG77; assay: Nitrogen source utilisation in Biolog 96-well plates, formazan formation after tetrazolium addition; type: cell-based; conditions: for Metabolized: Metabolized = more formazan formation than a control containing no nitrogen source, observed visually at 2 h, 24 h, 148 h; for Nitrogen sources that Mortierella elongata AG77 can metabolize: text summary of Table 4
Experimental: Two 300 mL volumes of growth medium comprising 1 g/L KH2PO4, 1 g/L MgSO4 7H2O, 0.1 g/L CaCl2, 0.02 g/L FeNaEDTA, 0.1 g/L NaCl, and either 1 g/L NH4NO3 or 20 g/L sucrose were prepared. […] Aliquots of 200 μL of carbon-free medium or nitrogen-free medium were pipetted into each well of a set of 96-well plates previously prepared with lyophilized putative carbon or nitrogen sources (Biolog Inc., Hayward, Calif.). Inocula were prepared by perforating a culture of Mortierella elongata AG77 grown on 20 g/L potato dextrose agar with a 3 mm diameter cork borer and separating the surface mycelial mat from the solid growth medium using tweezers. Each well was inoculated with one inoculum. Cultures were incubated at 21° C. for 24 hours to allow metabolic changes to stabilize, and then 100 μL of 3 g/L tetrazolium chloride in water was added to each well.
Conclusions were based on rate and intensity of formazan formation using the 3-(4,5-dimethylthiazol-2-yl)-2,5-diphenyltetrazolium bromide ([…]) assay. “Metabolized” indicates more formazan formation than a control containing no nitrogen source, and “Toxic” indicates less formazan formation than a control containing no nitrogen source, “Metabolized” and “Toxic” assignments are mutually exclusive. In this example, a compound may be “Metabolized” or “Toxic,” but not both.

[2] = test system: Mortierella elongata AG77; assay: Carbon source utilisation in Biolog 96-well plates, formazan formation after tetrazolium addition; type: cell-based; conditions: for Metabolized: Metabolized = more formazan formation than a control containing no carbon source, observed visually at 2 h, 24 h, 148 h; for Carbon sources that Mortierella elongata AG77 can metabolize: summary of Table 3
Procedure, shortened: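 Carbon- or nitrogen-free mineral medium (pH 5.5) was dispensed onto lyophilised carbon or nitrogen sources and inoculated with 3 mm mycelial plugs of M. elongata grown on PDA. After 24 h at 21 °C, tetrazolium chloride was added and formazan was scored visually at 2, 24 and 148 h against a no-carbon-source control.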

[3] = compound as nitrogen source, Toxic = less formazan formation than a control containing no nitrogen source
[4] = compound as carbon source, Toxic = less formazan formation than a control containing no carbon source

SMILES | Metabolized ([1]; compound as nitrogen source) | Toxic [1, 3] | Toxic [1] | further results
C[C@H](N)C(=O)N[C@@H](Cc1cnc[nH]1)C(=O)O [Ala-His] (H-Ala-His-OH) | no | no | – | –
O=c1[nH]c(=O)c2[nH]c(=O)[nH]c2[nH]1 [Uric Acid] | no | no | – | –
NC(=O)NC(N)=O [Biuret] | no | no | – | –
CCN [Ethylamine] | no | no | – | –
O=C1NC(=O)C(=O)C(=O)N1 [Alloxan] | no | no | – | –
N[C@@H](CS)C(=O)O [L-Cysteine] | no | – | – | –
NC(=O)C[C@@H](N)C(=O)O [D-Asparagine] | no | – | no | –
N [Ammonia] | no | – | no | –
NC(=O)NC1NC(=O)NC1=O (stereo not drawn) [Allantoin] | no | – | no | –
NO [Hydroxylamine] | no | – | – | –
CC(=O)N[C@@H]1C(O)O[C@H](CO)[C@@H](O)[C@@H]1O (stereo partly drawn) [N-Acetyl-D-Mannosamine] | no | no | – | –
CCC(N)C(=O)O (racemic) [D,L-α-Amino-N-Butyric Acid] | no | – | no | –
CCCCCCC(N)C(=O)O (racemic) [D,L-α-Amino- Caprylic Acid] | no | no | – | –
NCCCCCC(=O)O [ε-Amino-N-Caproic Acid] | no | no | – | –
NCCCC[C@@H](N)C(=O)O [D-Lysine] | no | – | no | –
O=c1[nH]c(=O)c2[nH]cnc2[nH]1 [Xanthine] | no | – | no | –
C[C@H](N)C(=O)N[C@@H](CCC(N)=O)C(=O)O [Ala-Gln] (H-Ala-Gln-OH) | yes | no | – | Nitrogen sources that Mortierella elongata AG77 can metabolize [1]: can metabolize
Nc1cc[nH]c(=O)n1 [Cytosine] | no | – | no | –
N[C@@H](Cc1ccc(O)cc1)C(=O)O [L-Tyrosine] | no | no | – | –
CCCCCN [N-Amylamine] | no | – | no | –

SMILES | Metabolized ([1]; compound as nitrogen source) | Toxic [1, 3] | Toxic [1] | further results
CN [Methylamine] | no | no | – | –
C[C@H](N)C(=O)N[C@@H](CC(=O)O)C(=O)O [Ala-Asp] (H-Ala-Asp-OH) | yes | no | – | Nitrogen sources that Mortierella elongata AG77 can metabolize [1]: can metabolize
Nc1ncnc2nc[nH]c12 [Adenine] | no | – | no | –
N[C@H]1C(O)O[C@H](CO)[C@H](O)[C@@H]1O (stereo partly drawn) [D-Galactosamine] | no | – | no | –
NCC(=O)N[C@@H](CC(N)=O)C(=O)O [Gly-Asn] (H-Gly-Asn-OH) | no | no | – | –
Nc1nc2c(ncn2[C@@H]2O[C@H](CO)[C@@H](O)[C@H]2O)c(=O)[nH]1 [Guanosine] | no | no | – | –
C[C@H](N)C(=O)N[C@H](C(=O)O)[C@@H](C)O [Ala-Thr] (H-Ala-Thr-OH) | no | no | – | –
CCCCN [N-Butylamine] | no | no | – | –
CC(C)[C@@H](N)C(=O)O [D-Valine] | no | – | no | –
CC(C)C[C@H](NC(=O)[C@H](C)N)C(=O)O [Ala-Leu] (H-Ala-Leu-OH) | yes | no | – | Nitrogen sources that Mortierella elongata AG77 can metabolize [1]: can metabolize
Nc1ccn([C@@H]2O[C@H](CO)[C@@H](O)[C@H]2O)c(=O)n1 [Cytidine] | yes | – | no | Nitrogen sources that Mortierella elongata AG77 can metabolize [1]: can metabolize
N[C@@H]1C(O)O[C@H](CO)[C@@H](O)[C@@H]1O (stereo partly drawn) [D-Mannosamine] | no | – | no | –
CCC[C@H](N)C(=O)O [α-Amino-N-Valeric Acid] | no | no | – | –
O=C1NC(=O)C(=O)N1 [Parabanic Acid] | yes | no | – | Nitrogen sources that Mortierella elongata AG77 can metabolize [1]: can metabolize
CSCC[C@H](N)C(=O)N[C@@H](C)C(=O)O [Met-Ala] (H-Met-Ala-OH) | no | no | – | –
NC=O [Formamide] | no | no | – | –
N[C@@H](Cc1c[nH]c2ccccc12)C(=O)O [L-Tryptophan] | no | – | no | –
NCC(=O)N[C@@H](CCC(N)=O)C(=O)O [Gly-Gln] (H-Gly-Gln-OH) | no | no | – | –
NCCN [Ethylenediamine] | no | – | no | –
NC(=O)NCCC[C@H](N)C(=O)O [L-Citrulline] | no | no | – | –

SMILES | Metabolized ([1]; compound as nitrogen source) | Toxic [1, 3] | Toxic [1] | further results
O=NO [Nitrite] | no | no | – | –
Nc1nc2nc[nH]c2c(=O)[nH]1 [Guanine] | no | – | yes | –
O=c1cc[nH]c(=O)[nH]1 [Uracil] | no | – | no | –
NC(N)=O [Urea] | no | no | – | –
CSCC[C@H](NC(=O)CN)C(=O)O [Gly-Met] | no | no | – | –
CO[C@@H]1O[C@H](CO)[C@@H](O)[C@H](O)[C@H]1O [β-Methyl-D-Galactoside] | – | – | – | Metabolized ([2]; compound as carbon source): yes; Toxic [2, 4]: no; Carbon sources that Mortierella elongata AG77 can metabolize [2]: can metabolize
C[C@H](N)C(=O)N[C@@H](CCC(=O)O)C(=O)O [Ala-Glu] (H-Ala-Glu-OH) | yes | no | – | Nitrogen sources that Mortierella elongata AG77 can metabolize [1]: can metabolize
O=C[C@@H](O)[C@@H](O)[C@H](O)[C@H](O)CO [D-Mannose] | – | – | – | Toxic [2]: no; Metabolized ([2]; compound as carbon source): no
O=C(O)[C@@H](O)[C@H](O)[C@H](O)[C@@H](O)C(=O)O [Mucic Acid] | – | – | – | Toxic [2]: no; Metabolized ([2]; compound as carbon source): no
COC1OC(CO)C(O)C(O)C1O [α-Methyl-D-Galactoside] | – | – | – | Metabolized ([2]; compound as carbon source): yes; Toxic [2, 4]: no; Carbon sources that Mortierella elongata AG77 can metabolize [2]: can metabolize
CC(O)CO (stereo not drawn) [1,2-Propanediol] | – | – | – | Metabolized ([2]; compound as carbon source): yes; Toxic [2, 4]: no; Carbon sources that Mortierella elongata AG77 can metabolize [2]: can metabolize
CC(O)C(N)=O (racemic) [D,L-Lactamide] | no | no | – | –
N=C(N)NCCCCN [Agmatine] | no | no | – | –
OC[C@@H](O)[C@H](O)[C@@H](O)CO [Xylitol] | – | – | – | Toxic [2]: no; Metabolized ([2]; compound as carbon source): no
Cc1c[nH]c(=O)[nH]c1=O [Thymine] | no | – | no | –
N[C@H](CCC(=O)O)C(=O)O [D-Glutamic Acid] | no | no | – | –
OC[C@@H](O)[C@@H](O[C@H]1O[C@H](CO)[C@@H](O)[C@H](O)[C@H]1O)[C@H](O)[C@@H](O)CO [Maltitol] | – | – | – | Metabolized ([2]; compound as carbon source): no; Toxic [2, 4]: no
OC[C@H]1O[C@@](CO)(O[C@H]2O[C@H](CO)[C@@H](O)[C@H](O)[C@H]2O)[C@@H](O)[C@@H]1O [Sucrose] | – | – | – | Toxic [2]: no; Metabolized ([2]; compound as carbon source): no
